Our source for the radioligand displacement and IC50 values is article PMC4222822, “Discovery and Characterization of a Potent and Selective Inhibitor of Aedes aegypti Inward Rectifier Potassium Channels” (PLoS ONE, 2014).

In one test the target is 5-HT2B receptor (Homo sapiens, UniProt P41595). Briefly: Radioligand displacement assay, 5-HT2B receptor. Conditions: 10 µM VU625. The format is binding, mammalian. (In general: Displacement assays read how much labelled ligand stays bound in the presence of the test substance.)
Sequence of 5-HT2B receptor (P41595 whole entry): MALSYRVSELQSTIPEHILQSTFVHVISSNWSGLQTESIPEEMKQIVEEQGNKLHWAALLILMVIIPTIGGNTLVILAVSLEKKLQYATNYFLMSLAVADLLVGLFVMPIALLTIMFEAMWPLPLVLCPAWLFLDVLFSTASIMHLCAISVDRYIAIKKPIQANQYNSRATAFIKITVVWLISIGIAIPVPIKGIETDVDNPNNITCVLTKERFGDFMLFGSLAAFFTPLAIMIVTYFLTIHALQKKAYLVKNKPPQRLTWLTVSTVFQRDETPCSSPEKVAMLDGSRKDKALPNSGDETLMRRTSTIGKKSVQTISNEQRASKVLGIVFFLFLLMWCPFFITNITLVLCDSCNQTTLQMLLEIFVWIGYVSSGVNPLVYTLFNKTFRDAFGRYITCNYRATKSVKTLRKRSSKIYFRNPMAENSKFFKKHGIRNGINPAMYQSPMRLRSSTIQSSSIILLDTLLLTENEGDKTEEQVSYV
The target of a further test is AeKir1 (Aedes aegypti, UniProt L0EQS9). Briefly: Two-electrode electrophysiology of Xenopus oocytes expressing AeKir1. The following applies: inward current at −140 mV, 95% CI: 2.3–6.3 µM, n = 4–5 oocytes per concentration, read-out: IC50 of AeKir1 current inhibition. The format is cell-based. As for the experimental part: AeKir1 and AeKir2B channels were expressed heterologously in Xenopus laevis oocytes as described previously. In brief, defolliculated Xenopus oocytes (purchased from Ecocyte Bioscience, Austin, TX) were injected with 10 ng (0.35 ng/nL) of either AeKir1 or AeKir2B cRNA and cultured for 3–7 days in OR3 media at 18°C. Oocytes injected with 28 nl of nuclease-free H2O served as controls.
Sequence of AeKir1 (L0EQS9 entry or part of it): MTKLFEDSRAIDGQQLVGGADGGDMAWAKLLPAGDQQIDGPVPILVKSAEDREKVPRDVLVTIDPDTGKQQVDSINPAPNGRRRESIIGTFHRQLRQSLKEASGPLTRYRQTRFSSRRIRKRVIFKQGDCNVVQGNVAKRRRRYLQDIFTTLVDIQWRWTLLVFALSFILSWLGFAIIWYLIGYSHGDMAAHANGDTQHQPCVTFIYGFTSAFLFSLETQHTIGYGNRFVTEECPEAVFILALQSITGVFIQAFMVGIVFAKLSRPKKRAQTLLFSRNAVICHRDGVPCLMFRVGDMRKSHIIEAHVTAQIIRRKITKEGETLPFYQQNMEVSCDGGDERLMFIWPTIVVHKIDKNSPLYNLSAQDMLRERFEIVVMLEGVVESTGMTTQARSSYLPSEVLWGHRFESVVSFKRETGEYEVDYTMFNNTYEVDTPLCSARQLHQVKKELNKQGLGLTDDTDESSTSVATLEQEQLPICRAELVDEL
All electrophysiological experiments on Xenopus oocytes were performed at room temperature. When present, VU625 was dissolved in solution III or solution V to a final concentration of 0.1, 1, 5, 15, or 50 µM (0.05% DMSO). All solutions were delivered by gravity to a RC-3Z oocyte chamber (Warner Instruments, Hamden, CT) via polyethylene tubing at a flow rate of ∼2 ml/min. Solution changes were made with a Rheodyne Teflon 8-way Rotary valve (Model 5012, Rheodyne, Rohnert Park, CA).
Electrophysiological recordings from oocytes were conducted as described previously In brief, each oocyte was transferred to the holding chamber under superfusion with solution I and impaled with two conventional-glass microelectrodes backfilled with 3 M KCl (resistances of 0.5–1.5 MΩ) to measure membrane potential (Vm) and whole-cell membrane current (Im), respectively. […] All Vm and Im values were recorded by a Digidata 1440A Data Acquisition System (Molecular Devices) and the Clampex module of pCLAMP. […]

A further test addresses T1, Kir2.3 (Homo sapiens, UniProt P48050).
T1 construct: expressed in transfected cells
T1 sequence (P48050 1-445): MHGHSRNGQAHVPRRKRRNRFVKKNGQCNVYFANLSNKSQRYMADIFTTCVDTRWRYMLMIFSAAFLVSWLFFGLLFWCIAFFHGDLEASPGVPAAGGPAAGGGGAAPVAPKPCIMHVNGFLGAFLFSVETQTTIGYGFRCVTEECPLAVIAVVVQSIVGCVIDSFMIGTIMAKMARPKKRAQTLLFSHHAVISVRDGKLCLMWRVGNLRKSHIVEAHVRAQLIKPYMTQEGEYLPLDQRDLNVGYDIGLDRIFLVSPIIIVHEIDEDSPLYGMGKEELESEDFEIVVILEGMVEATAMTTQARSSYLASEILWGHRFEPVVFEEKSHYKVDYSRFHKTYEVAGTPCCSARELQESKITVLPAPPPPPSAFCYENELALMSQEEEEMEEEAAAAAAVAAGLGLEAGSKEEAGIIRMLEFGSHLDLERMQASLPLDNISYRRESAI
As to the kind of experiment: Tl+ flux selectivity assay, Kir2.3. The format is cell-based. Conditions: n = 2 independent experiments in triplicate, read-out: Inhibition of Tl+ flux (IC50). As for the experimental part: [Worded in the source for another target; used here, by the source, with some conditions changed.] Tl^+ flux assays were performed essentially as described previously, [18], [19]. Briefly, stably transfected T-Rex-HEK-293 cells expressing AeKir1 channels were cultured overnight in 384-well plates (20,000 cells/20 µL/well black-walled, clear-bottomed BD PureCoat amine-coated plates (BD, Bedford, MA) with a plating media containing DMEM, 10% dialyzed FBS and 1 µg/mL tetracycline. The next day, the cell culture medium was replaced with a dye-loading solution containing assay buffer (Hanks Balanced Salt Solution with 20 mM HEPES, pH 7.3), 0.01% (w/v) Pluronic F-127 (Life Technologies, Carlsbad, CA), and 1.2 µM of the thallium-sensitive dye Thallos-AM (TEFlabs, Austin, TX). Following 1 hr incubation at room temperature, the dye-loading solution was washed from the plates and replaced with 20 µL/well of assay buffer. […] Tl^+ flux data were analyzed as previously described, [21], [22] using a combination of Excel (Microsoft Corp, Redmond, WA) with XLfit add-in (IDBS, Guildford, Surrey, UK) and OriginPro (OriginLab, Northampton, MA) software. […] The slope of the fluorescence increase beginning 5 s after Tl^+ addition and ending 15 s after Tl^+ addition was calculated.

In turn, `CCC(=O)N1c2ccc(S(=O)(=O)Nc3cccc(OC)c3)cc2CC1C` (stereo not drawn) [VU625, N-(3-methoxyphenyl)-2-methyl-1-propionylindoline-5-sulfonamide] registered a radioligand displacement on 5-HT2B receptor of 69%. Besides, the IC50 (commonly the concentration that inhibits the measured activity by half) at AeKir1 was 3.8 µM; at Kir2.3, above 30 µM.
